Data: patent US20070282007A1, “TREATMENT OF PAIN DISORDERS WITH trans 4-(3,4-DICHLOROPHENYL)-1,2,3,4-TETRAHYDRO-1-NAPHTHALENAMINE AND ITS FORMAMIDE” (SEPRACOR INC., priority 2006, published 2007)

Assays:
[1] = target: T1, recombinant human Dopamine (DA) transporter (Homo sapiens, UniProt Q01959); test: Functional uptake of DA into cells expressing recombinant human transporters; type: cell-based; details: read-out: IC50 inhibition of functional uptake in human transporters, Dopamine (DA)
T1 construct: expressed in transfected cells
T1 sequence (Q01959 whole entry): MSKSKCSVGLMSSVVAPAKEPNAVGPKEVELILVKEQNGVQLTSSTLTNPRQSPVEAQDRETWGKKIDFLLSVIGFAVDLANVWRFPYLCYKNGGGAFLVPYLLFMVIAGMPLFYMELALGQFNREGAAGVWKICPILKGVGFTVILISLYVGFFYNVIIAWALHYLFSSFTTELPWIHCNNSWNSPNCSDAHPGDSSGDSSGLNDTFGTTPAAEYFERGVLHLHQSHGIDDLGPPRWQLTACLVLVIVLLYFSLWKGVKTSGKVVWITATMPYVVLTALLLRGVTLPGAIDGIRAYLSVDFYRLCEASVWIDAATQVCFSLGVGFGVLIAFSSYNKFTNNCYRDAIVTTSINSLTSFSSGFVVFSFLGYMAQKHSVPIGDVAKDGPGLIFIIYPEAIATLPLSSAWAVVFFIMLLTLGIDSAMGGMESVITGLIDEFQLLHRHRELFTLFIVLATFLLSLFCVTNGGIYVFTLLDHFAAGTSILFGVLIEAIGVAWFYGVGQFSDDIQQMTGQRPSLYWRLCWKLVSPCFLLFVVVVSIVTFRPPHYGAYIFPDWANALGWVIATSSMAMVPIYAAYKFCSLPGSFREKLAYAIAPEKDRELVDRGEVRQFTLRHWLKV

D1 = D1 (Homo sapiens, UniProt P21728); test: In vitro radioligand binding assay, D1
Sequence of D1 (P21728 whole entry): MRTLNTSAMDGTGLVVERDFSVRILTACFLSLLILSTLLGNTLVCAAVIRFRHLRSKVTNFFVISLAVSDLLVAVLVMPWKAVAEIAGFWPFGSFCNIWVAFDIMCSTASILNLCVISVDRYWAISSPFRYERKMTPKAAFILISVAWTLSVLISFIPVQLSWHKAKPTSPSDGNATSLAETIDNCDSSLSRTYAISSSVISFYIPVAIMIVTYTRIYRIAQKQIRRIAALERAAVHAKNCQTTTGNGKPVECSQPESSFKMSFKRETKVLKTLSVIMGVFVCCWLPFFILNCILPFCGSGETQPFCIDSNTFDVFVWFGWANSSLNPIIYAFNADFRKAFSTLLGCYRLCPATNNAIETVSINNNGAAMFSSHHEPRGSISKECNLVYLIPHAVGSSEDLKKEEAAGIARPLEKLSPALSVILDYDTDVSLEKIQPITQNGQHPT

M5 = target: T2, M5 (Homo sapiens, UniProt P08912); test: In vitro radioligand binding assay, M5; details: read-out: Ki, M5
T2 sequence (P08912 1-532): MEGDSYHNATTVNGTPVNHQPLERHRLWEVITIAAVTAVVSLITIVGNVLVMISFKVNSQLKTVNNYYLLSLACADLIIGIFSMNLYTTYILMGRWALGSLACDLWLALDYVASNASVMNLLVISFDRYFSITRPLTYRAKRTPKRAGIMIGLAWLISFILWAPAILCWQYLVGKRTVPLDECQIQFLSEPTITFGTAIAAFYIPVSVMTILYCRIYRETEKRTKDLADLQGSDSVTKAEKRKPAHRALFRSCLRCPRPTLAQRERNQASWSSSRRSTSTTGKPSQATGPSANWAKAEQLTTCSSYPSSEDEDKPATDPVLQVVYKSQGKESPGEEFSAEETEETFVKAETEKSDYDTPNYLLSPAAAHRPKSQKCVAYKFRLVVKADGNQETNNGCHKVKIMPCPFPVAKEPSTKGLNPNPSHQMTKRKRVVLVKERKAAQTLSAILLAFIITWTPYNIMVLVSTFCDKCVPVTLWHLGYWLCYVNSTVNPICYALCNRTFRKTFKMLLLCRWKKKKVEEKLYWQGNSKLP

5-HT1A = target: T3, 5-HT1A (Homo sapiens, UniProt P08908); test: In vitro radioligand binding assay, 5-HT1A
T3 sequence (P08908 1-422): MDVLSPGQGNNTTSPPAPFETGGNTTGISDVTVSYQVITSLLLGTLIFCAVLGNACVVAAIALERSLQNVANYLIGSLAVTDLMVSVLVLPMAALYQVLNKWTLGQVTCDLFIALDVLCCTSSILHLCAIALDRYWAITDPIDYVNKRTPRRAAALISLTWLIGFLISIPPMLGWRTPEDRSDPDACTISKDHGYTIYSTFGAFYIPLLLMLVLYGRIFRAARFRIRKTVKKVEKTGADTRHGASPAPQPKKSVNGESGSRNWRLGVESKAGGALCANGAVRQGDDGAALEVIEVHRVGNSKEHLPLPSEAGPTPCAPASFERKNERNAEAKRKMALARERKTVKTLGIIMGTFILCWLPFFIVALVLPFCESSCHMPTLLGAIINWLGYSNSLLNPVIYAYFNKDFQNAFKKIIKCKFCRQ

5-HT2A = 5-HT2A (Homo sapiens, UniProt P28223); test: In vitro radioligand binding assay, 5-HT2A
Sequence of 5-HT2A (P28223 whole entry, species assumed): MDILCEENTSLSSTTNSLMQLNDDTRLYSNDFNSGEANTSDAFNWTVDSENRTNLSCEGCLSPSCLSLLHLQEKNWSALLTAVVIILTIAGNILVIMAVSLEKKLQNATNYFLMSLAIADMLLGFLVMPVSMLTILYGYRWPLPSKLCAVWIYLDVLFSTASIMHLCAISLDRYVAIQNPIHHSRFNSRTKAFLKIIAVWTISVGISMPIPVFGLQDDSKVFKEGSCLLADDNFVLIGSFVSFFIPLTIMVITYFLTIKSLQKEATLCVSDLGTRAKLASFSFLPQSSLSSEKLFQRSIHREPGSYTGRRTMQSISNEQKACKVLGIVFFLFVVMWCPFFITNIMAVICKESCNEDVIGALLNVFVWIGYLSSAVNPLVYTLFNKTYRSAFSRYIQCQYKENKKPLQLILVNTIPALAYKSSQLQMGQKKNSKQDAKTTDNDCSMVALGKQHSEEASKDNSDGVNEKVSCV

5-HT2C = 5-HT2C (Homo sapiens, UniProt P28335); test: In vitro radioligand binding assay, 5-HT2C
Sequence of 5-HT2C (P28335 33-458, species assumed): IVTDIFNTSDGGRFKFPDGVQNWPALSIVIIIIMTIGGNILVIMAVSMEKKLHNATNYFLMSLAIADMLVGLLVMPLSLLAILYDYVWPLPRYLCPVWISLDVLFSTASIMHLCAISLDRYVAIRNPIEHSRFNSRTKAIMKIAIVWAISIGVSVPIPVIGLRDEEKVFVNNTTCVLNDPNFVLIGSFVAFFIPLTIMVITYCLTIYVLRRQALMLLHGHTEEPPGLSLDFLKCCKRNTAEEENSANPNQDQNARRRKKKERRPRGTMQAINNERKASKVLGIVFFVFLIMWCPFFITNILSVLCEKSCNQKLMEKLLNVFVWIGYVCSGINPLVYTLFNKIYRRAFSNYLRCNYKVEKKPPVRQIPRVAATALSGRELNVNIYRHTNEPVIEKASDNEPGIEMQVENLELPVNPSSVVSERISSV

Long-Evans derived rats = test: Porsolt forced swim test; type: in vivo, rat; details: for Mean Immobility Time (% of Total) ± SEM, Day 2 Study: 3 administrations; for Mean Immobility Time (% of Total) ± SEM, Day 4 Study: 7 administrations
Procedure: Performance in the Porsolt forced swim test was evaluated for sertraline and Compound P following protocols outlined in Porsolt R. D., et al., Arch. Int. Pharmacodyn., 229: 327 ([…]).
The Porsolt forced swim test is a model of “behavioral despair”, which has been used as an in vivo model for assessing potential antidepressant-like activity. Both test articles were dissolved in physiological saline (vehicle) and administered intraperitoneally. […] Long-Evans derived rats were used.

Beagle dogs = test: Cardiovascular safety study in conscious telemetered dogs; type: in vivo; details: single oral doses 0.5, 1.5 and 5 mg/kg
Procedure: There were four animals/compound and each animal within the treatment group was exposed to the three doses (plus a empty capsule control), in a dose ramp-up manner with a minimum of 72 hours between doses.

Rat SNL Model [2] = test: SNL model of neuropathic pain, mechanical allodynia testing; type: in vivo
Procedure: (§1) The animals were anesthetized with isoflurane, the left L5 transverse process was removed, and the L5 and L6 spinal nerves were tightly ligated with 6-0 silk suture. The wound was then closed with internal sutures and external staples. Wound clips were removed 10-11 days following surgery.
Animals were placed on a perforated metallic platform and allowed to acclimate to their surroundings for a minimum of 30 minutes before testing. The mean and standard error of the mean (SEM) were determined for each animal in each treatment group. Since this stimulus is normally not considered painful, significant injury-induced increases in responsiveness in this test are interpreted as a measure of mechanical allodynia. Mechanical allodynia was evaluated 14 days post-surgery.
(§2) Ten rats were studied per group and the tests were performed blind. (1R,4S)-4-(3,4-dichlorophenyl)-1,2,3,4-tetrahydro-1-naphthalenamine (P) was evaluated at 3 doses (5, 10 and 15 mg/kg), administered orally and compared with a vehicle control group. Gabapentin (100 mg/kg) and duloxetine (30 mg/kg) administered orally under the same experimental conditions, were used as comparator substances. Mechanical allodynia and hyperalgesia testing were conducted at baseline and 1, 2 and 4 hours after test article administration.

Rat SNL Model [3] = test: SNL model of neuropathic pain, mechanical hyperalgesia testing; type: in vivo
Procedure: as §1
Mechanical hyperalgesia testing: Baseline, post-injury and post-treatment values for […] mechanical sensitivity were evaluated using a Paw Pressure Analgesymeter (7200, Ugo Basile, Comerio, Italy) which generates a linearly increasing mechanical force. The mechanical nociceptive stimulus was applied to the plantar surface of the hind paws by a dome-shaped plastic tip placed between the 3rd and 4th metatarsus. […] Mechanical thresholds were defined as the force in grams at the first pain behavior, which includes paw withdrawal, struggle and/or vocalization. Paw pressure test was performed on each hind paw for each animal. The mean and standard error of the mean (SEM) were determined for each paw, in each treatment group. Mechanical hyperalgesia was evaluated 24 days post-surgery.
as §2

N[C@@H]1CC[C@@H](c2ccc(Cl)c(Cl)c2)c2ccccc21 [Compound P, (1R,4S)-trans 4-(3,4-dichlorophenyl)-1,2,3,4-tetrahydro-1-napthalenamine] was tested, and the IC50 [1] was 0.0129 µM, the Ki (D1) was 6.8 µM and the Ki (M5) was 8.4 µM. For the same molecule, the Ki (5-HT1A) was 1.1 µM, the Ki (5-HT2A) was 0.72 µM and the Ki (5-HT2C) was 5.1 µM. The “Mean Immobility Time (% of Total) ± SEM, Day 2 Study” value (Long-Evans derived rats; 1.25 mg/kg i.p.) was 77 ± 3 % of Total, the “Mean Immobility Time (% of Total) ± SEM, Day 4 Study” value (Long-Evans derived rats; 1.25 mg/kg i.p.) was 69 ± 4 % of Total and the “Mean Immobility Time (% of Total) ± SEM, Day 2 Study” value (Long-Evans derived rats; 2.5 mg/kg i.p.) was 48 ± 6 % of Total. The “Mean Immobility Time (% of Total) ± SEM, Day 4 Study” value (Long-Evans derived rats; 2.5 mg/kg i.p.) was 46 ± 8 % of Total, the “Mean Immobility Time (% of Total) ± SEM, Day 2 Study” value (Long-Evans derived rats; 5.0 mg/kg i.p.) was 49 ± 5 % of Total and the “Mean Immobility Time (% of Total) ± SEM, Day 4 Study” value (Long-Evans derived rats; 5.0 mg/kg i.p.) was 19 ± 6 % of Total. For the same molecule, the “effect on heart rate, blood pressure or ECG parameters (including QTc)” value (Beagle dogs) was “no effect”, the “Mechanical Allodynia, Paw Withdrawal Threshold (Mean ± SEM)” value (“Mechanical Allodynia … (Mean ± SEM)” for short) (Rat SNL Model [2]; 5 mg/kg PO, 0 h (Baseline)) was 3.1 ± 0.2 g and the “Mechanical Allodynia … (Mean ± SEM)” value (Rat SNL Model [2]; 5 mg/kg PO, 1 h) was 3.7 ± 0.3 g. For the same molecule, the “Mechanical Allodynia … (Mean ± SEM)” value (Rat SNL Model [2]; 5 mg/kg PO, 2 h) was 3.2 ± 0.2 g, the “Mechanical Allodynia … (Mean ± SEM)” value (Rat SNL Model [2]; 5 mg/kg PO, 4 h) was 3.9 ± 0.2 g and the “Mechanical Allodynia … (Mean ± SEM)” value (Rat SNL Model [2]; 10 mg/kg PO, 0 h (Baseline)) was 2.8 ± 0.2 g. For the same molecule, the “Mechanical Allodynia … (Mean ± SEM)” value (Rat SNL Model [2]; 10 mg/kg PO, 1 h) was 5.0 ± 0.3 g, the “Mechanical Allodynia … (Mean ± SEM)” value (Rat SNL Model [2]; 10 mg/kg PO, 2 h) was 5.7 ± 0.5 g and the “Mechanical Allodynia … (Mean ± SEM)” value (Rat SNL Model [2]; 10 mg/kg PO, 4 h) was 6.6 ± 0.4 g. The “Mechanical Allodynia … (Mean ± SEM)” value (Rat SNL Model [2]; 15 mg/kg PO, 0 h (Baseline)) was 2.9 ± 0.1 g, the “Mechanical Allodynia … (Mean ± SEM)” value (Rat SNL Model [2]; 15 mg/kg PO, 1 h) was 8.8 ± 0.6 g and the “Mechanical Allodynia … (Mean ± SEM)” value (Rat SNL Model [2]; 15 mg/kg PO, 2 h) was 7.5 ± 0.5 g. For the same molecule, the “Mechanical Allodynia … (Mean ± SEM)” value (Rat SNL Model [2]; 15 mg/kg PO, 4 h) was 13.6 ± 0.3 g, the “Mechanical Hyperalgesia, Paw Pressure Threshold (Mean ± SEM)” value (shortened to “Mechanical Hyperalgesia … (Mean ± SEM)”) (Rat SNL Model [3]; 5 mg/kg PO, 0 h (Baseline)) was 147 ± 17 g and the “Mechanical Hyperalgesia … (Mean ± SEM)” value (Rat SNL Model [3]; 5 mg/kg PO, 1 h) was 183 ± 35 g. For the same molecule, the “Mechanical Hyperalgesia … (Mean ± SEM)” value (Rat SNL Model [3]; 5 mg/kg PO, 2 h) was 240 ± 32 g, the “Mechanical Hyperalgesia … (Mean ± SEM)” value (Rat SNL Model [3]; 5 mg/kg PO, 4 h) was 257 ± 37 g and the “Mechanical Hyperalgesia … (Mean ± SEM)” value (Rat SNL Model [3]; 10 mg/kg PO, 0 h (Baseline)) was 152 ± 18 g. The “Mechanical Hyperalgesia … (Mean ± SEM)” value (Rat SNL Model [3]; 10 mg/kg PO, 1 h) was 213 ± 32 g, the “Mechanical Hyperalgesia … (Mean ± SEM)” value (Rat SNL Model [3]; 10 mg/kg PO, 2 h) was 309 ± 27 g and the “Mechanical Hyperalgesia … (Mean ± SEM)” value (Rat SNL Model [3]; 10 mg/kg PO, 4 h) was 282 ± 30 g. The “Mechanical Hyperalgesia … (Mean ± SEM)” value (Rat SNL Model [3]; 15 mg/kg PO, 0 h (Baseline)) was 164 ± 22 g, the “Mechanical Hyperalgesia … (Mean ± SEM)” value (Rat SNL Model [3]; 15 mg/kg PO, 1 h) was 281 ± 37 g and the “Mechanical Hyperalgesia … (Mean ± SEM)” value (Rat SNL Model [3]; 15 mg/kg PO, 2 h) was 251 ± 37 g. The “Mechanical Hyperalgesia … (Mean ± SEM)” value (Rat SNL Model [3]; 15 mg/kg PO, 4 h) was 269 ± 37 g.
